From paper PMC10787790, “Isatin-tethered halogen-containing acylhydrazone derivatives as monoamine oxidase inhibitor with neuroprotective effect” (Scientific Reports, 2024)

Experiments:
MAO-A [1] = settings: halogenated pyrazoline, no reference given; cited from earlier work
MAO-B [2] = target: T1, MAO-B (Homo sapiens, UniProt P27338); test: MAO-B inhibition assay (continuous, benzylamine); settings: for SI (selectivity index): (IC50 of MAO-A)/(IC50 of MAO-B), MAO-B compared to MAO-A; for remaining activity at 10 µM: read-out: Residual activity at 10 µM (%) MAO-B
T1 sequence (P27338 1-520): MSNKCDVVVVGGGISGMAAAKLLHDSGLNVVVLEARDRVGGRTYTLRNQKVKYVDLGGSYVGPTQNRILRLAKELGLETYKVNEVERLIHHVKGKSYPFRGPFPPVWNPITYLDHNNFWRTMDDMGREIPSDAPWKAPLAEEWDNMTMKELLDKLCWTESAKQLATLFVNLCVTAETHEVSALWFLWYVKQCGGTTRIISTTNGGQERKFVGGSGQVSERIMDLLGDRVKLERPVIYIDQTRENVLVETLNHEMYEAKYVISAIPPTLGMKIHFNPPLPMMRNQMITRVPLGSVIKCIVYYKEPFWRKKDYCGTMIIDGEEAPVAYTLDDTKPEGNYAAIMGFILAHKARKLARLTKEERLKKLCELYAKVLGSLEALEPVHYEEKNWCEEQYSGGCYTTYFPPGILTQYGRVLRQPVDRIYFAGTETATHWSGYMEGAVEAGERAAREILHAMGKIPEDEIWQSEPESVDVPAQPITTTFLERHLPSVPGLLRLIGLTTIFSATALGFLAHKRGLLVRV
Procedure: (§1) MAO-A and MAO-B activities were determined using 0.06 mM kynuramine and 0.3 mM benzylamine, respectively[39]. […] Concentrations of the substrates used were around 2.0 times of their Km values for the enzyme assay. The absorbance was measured using the continuous assay method described previously[40].
(§2) The selectivity index (SI) values of the compounds were calculated as follows: (IC50 of MAO-A)/(IC50 of MAO-B)[42].

MAO-A [3] = target: T2, MAO-A (Homo sapiens, UniProt P21397); test: MAO-A inhibition assay (continuous, kynuramine); settings: for remaining activity at 10 µM: read-out: Residual activity at 10 µM (%) MAO-A
T2 sequence (P21397 1-527): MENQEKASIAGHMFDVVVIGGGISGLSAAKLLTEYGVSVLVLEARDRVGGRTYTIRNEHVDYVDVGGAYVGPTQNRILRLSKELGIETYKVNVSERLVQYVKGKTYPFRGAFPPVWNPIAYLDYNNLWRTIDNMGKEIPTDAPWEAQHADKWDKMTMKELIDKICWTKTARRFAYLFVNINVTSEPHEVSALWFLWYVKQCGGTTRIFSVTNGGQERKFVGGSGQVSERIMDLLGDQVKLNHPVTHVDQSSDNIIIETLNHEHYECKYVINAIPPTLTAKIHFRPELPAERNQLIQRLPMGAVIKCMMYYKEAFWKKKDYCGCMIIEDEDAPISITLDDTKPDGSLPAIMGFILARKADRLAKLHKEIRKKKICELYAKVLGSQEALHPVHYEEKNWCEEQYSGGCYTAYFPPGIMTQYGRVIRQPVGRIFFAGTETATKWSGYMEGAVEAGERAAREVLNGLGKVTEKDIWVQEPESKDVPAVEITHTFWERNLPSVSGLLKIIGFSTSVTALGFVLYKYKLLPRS
Procedure: as §1, §2

[4] = Parallel artificial membrane permeability assay (PAMPA), BBB; type: in vitro ADME; settings: for Experimental Pe: pH 7.4; for Papp: pH 7.4, read-out: Experimental Pe
Procedure: The blood–brain barrier (BBB) permeation abilities of the four lead molecules were analyzed using the PAMPA method[44],[45]. The detailed procedure is explained in the Supplementary Data.
Using a microtiter plate with 96 wells and a Millipore filter plate with 96 wells (ipvh, 125 μm thick filter, 0.45 μm pore), which was then saturated with 0.1 mL of n-dodecane, a "sandwich" structure was created in PAMPA. Stock solutions of drug samples in DMSO were created at a 10 mM concentration. The stock solution was diluted in buffer at pH 7.4 before being added to a 96-well filter plate in order to achieve a final sample concentration (0.01, 0.1, and 1 mM) and keep the DMSO concentration at 1% (v/v). The final dilutions were divided into 270 μL for the donor wells and 200 μL of pH 7.4 buffer for the acceptor well. The donor plate was placed on the top of the acceptor filter plate to form a sandwich (comprising of a synthetic lipid membrane in the center, an aqueous receiver on […], and an aqueous donor carrying an analyte on the bottom.). The test substance diffuses from the donor well across the lipid membrane and into the acceptor well. The sandwich is said to have been intact when the penetration occurred. The drug concentration in the reference, donor, and receiver wells was measured using UV spectroscopy. The rate of penetration is calculated using the following expression.
Log Pe = -ln [1-CA /Equilibrium]/A× (1/VD + 1/VA) × t

ROS = ROS assay (DCF) in LPS-treated SH-SY5Y cells; type: cell-based, human
Procedure: (§3) Subcultures were performed every two days.
The OxiSelect Intracellular ROS Assay Kit (Cell Biolabs Inc., San Diego, CA, USA) was used to quantify the levels of the fluorescent probe 20,70-dichlorodihydrofluorescin diacetate (DCFH-DA).

NF-kB = NF-kB expression in LPS-induced SH-SY5Y cells; settings: LPS 1 µg/mL 2 h, compound 24 h, SH-SY5Y
IL-6 = IL-6 expression in LPS-induced SH-SY5Y cells; type: cell-based, human
TNF-α = TNF-α expression in LPS-induced SH-SY5Y cells; type: cell-based, human
MAO-B [5] = target: T1, MAO-B; test: Reversibility study by dialysis, MAO-B
Procedure: Reversibility test was performed by using Dialyzer DiaEasy™ (6–8 kDa, BioVision, St. Grove, MA, USA).

MAO-B [6] = target: T1, MAO-B; test: Enzyme kinetics, Lineweaver-Burk and secondary plots, MAO-B; type: biochemical; parameters: purchased Sigma-Aldrich
Procedure: Enzyme inhibition patterns and Ki values were determined by comparing Lineweaver–Burk (LB) plots and their secondary plots, respectively[40].

CAT = test: Catalase (CAT) activity in LPS-induced SH-SY5Y cells; type: cell-based, human; settings: 10 µM/mL
Procedure: as §3
CAT activity was determined according to Aebi[50]. A human CAT ELISA kit was purchased commercially (KrishGen Biosystems). Following treatment, the adherent cells were scraped off, suspended in cold PBS, sonicated, and placed on ice. The medium was then removed from each well. The 3 mL CAT assay combination comprised of extract (0.05 mL), phosphate buffer (1.5 mL, 100 mM buffer, pH 7.0), H2O2 (0.5 mL), and distilled water (0.95 mL). The absorbance decreased at 450 nm. CAT activity was reported in terms of ng/mL of H2O2 oxidized per min per gram[46]–[49].

SOD = test: Superoxide dismutase (SOD) activity in LPS-induced SH-SY5Y cells; type: cell-based, human; settings: 10 µM/mL
Procedure: Using a superoxide dismutase assay kit (KrishGen Biosystems, India), which measures the concentration of formazan crystals using a colorimetric assay, SOD activity was determined. In this test, a tetrazolium salt was used to detect the superoxide radicals produced by xanthine oxidase and hypoxanthine. After treatment, the medium was removed, centrifuged at 2000 rpm for 5 min at room temperature, and placed on ice. A diluted radical detector and lysed cell supernatant or a standard were applied to each well of a 96-well plate to evaluate SOD activity using an ELISA kit, according to the manufacturer’s instructions. The absorbance of the wells was then determined after 5 min at a wavelength of 450 nm using a microplate reader (Safire2, Tecan Group Ltd., Maennedorf, Switzerland).

SH-SY5Y cells = test: MTT cytotoxicity assay; type: cell-based, human; settings: 24 h
Procedure: as §3
The cells were grown in 96-well plates with 20,000 cells per well. Different compound concentrations were applied to the cells, and the treated cells were then left to incubate for 24 h. After applying 50 µL of MTT (0.5 mg/mL) to each well, the plates were incubated for 3 h, then 100 µL of DMSO was added to dissolve the purple formazan crystal, and an absorbance was measured at 570 nm using a microplate reader (ELX-800, BioTek, CA, USA). Compounds' growth inhibitory concentration (IC50) values were computed.

GPx = test: Glutathione peroxidase (GPx) activity in LPS-induced SH-SY5Y cells; type: cell-based, human; settings: 10 µM/mL
From the text: A GPx assay kit (KrishGen Biosystems) was used to evaluate the GPx activity. The kit uses a colorimetric assay to determine the quantity of GPx. Glutathione reductase (GR) mediates GPx activity Oxidized glutathione (GSSG) is produced via hydroperoxide reduction by GPx. This glutathione is recycled back to its reduced state by GR and NADPH. The NADPH to NADP + oxidation was accompanied by a decrease in absorbance at 450 nm (A450). When GPx activity was rate-limiting, the rate of decline in A450 was directly correlated with GPx activity. Following treatment, adherent cells were removed from the wells, suspended in cold PBS, sonicated, and frozen. In accordance with the ELISA kit’s instructions, the lysed cell supernatant, or standard, was applied to all 96 wells of a plate together with a diluted radical detector to assay the activity of GPx. A microplate reader was used to measure the absorbance of the wells after 5 min[46]–[49]. Results were obtained in ng/mL.

[7] = LPS 1 µg/mL 2 h, compound 24 h, SH-SY5Y

For `CCOc1ccc(C2=NNC(c3ccc(Br)cc3)C2)cc1` (centres unmarked) [EH8], the IC50 (MAO-A [1]) is listed as 4.31 µM.
For `O=C1Nc2ccc(Br)cc2/C1=N/NC(=O)c1ccccc1` [IS1], the IC50 (MAO-B [2]) was 0.42 ± 0.028 µM, the “SI (selectivity index)” value (MAO-B [2]) was > 95.24 and the remaining activity at 10 µM (MAO-B [2]) was 22 ± 2.75%. The IC50 (MAO-A [3]) was > 40 µM and the remaining activity at 10 µM (MAO-A [3]) was 83.1 ± 2.34%.
For `O=C1Nc2ccc(Br)cc2/C1=N/NC(=O)c1ccc(Cl)cc1` [IS2], the IC50 (MAO-B [2]) was 0.269 ± 0.004 µM, the “SI (selectivity index)” value (MAO-B [2]) was 34.03 and the remaining activity at 10 µM (MAO-B [2]) was 1.18 ± 2.04%. The IC50 (MAO-A [3]) was 9.16 ± 0.324 µM and the remaining activity at 10 µM (MAO-A [3]) was 46.9 ± 2.73%.
For `O=C1Nc2ccc(Br)cc2/C1=N/NC(=O)c1ccc(Br)cc1` [IS3], the IC50 (MAO-B [2]) was 0.514 ± 0.023 µM, the “SI (selectivity index)” value (MAO-B [2]) was 4.64 and the remaining activity at 10 µM (MAO-B [2]) was 1.04 ± 0.23%. It also gave an IC50 (MAO-A [3]) of 2.385 ± 0.018 µM and a remaining activity at 10 µM (MAO-A [3]) of 29.5 ± 0.34%.
For `O=C1Nc2ccc(Br)cc2/C1=N/NC(=O)c1ccc(F)cc1` [IS4], the IC50 (MAO-B [2]) was 7.28 ± 1.72 µM, the “SI (selectivity index)” value (MAO-B [2]) was 4.51 and the remaining activity at 10 µM (MAO-B [2]) was 42.5 ± 8.93%. The IC50 (MAO-A [3]) was 32.85 ± 0.134 µM and the remaining activity at 10 µM (MAO-A [3]) was 70.1 ± 1.93%.
For `O=C1Nc2ccccc2/C1=N/NC(=O)c1ccc(Cl)cc1` [IS6], the “CNS/BBB permeability in words” value [4] was “high permeability and CNS bioavailability”, the “Prediction (CNS permeation class)” value [4] was “CNS+ (Pe (10^−6 cm/s) > 4.00: CNS + (high permeation))” and the “Experimental Pe” value [4] was > 4 ×10⁻⁶ cm/s. The Papp [4] was 4.86 ± 0.26 ×10⁻⁶ cm/s.
In the case of `O=C1Nc2ccccc2/C1=N/NC(=O)c1ccc(Br)cc1` [IS7], the “DCF intensity decrease at 10 µM” value (ROS; 10 µM/mL (10 µM), vs LPS-induced cells) is reported as “effective DCF intensity decrease”, the “DCF expression (ROS) vs cells treated with LPS alone” value (ROS; LPS-induced SH-SY5Y) is reported as “significantly inhibited (p < 0.0001)” and the “NF-kB level vs LPS-treated group” value (NF-kB) is reported as “significantly (p < 0.0001) reduced”. For the same compound, the “IL-6 level vs LPS-treated group” value (IL-6; [7]) was “significantly (p < 0.0001) reduced”, the “IL-6 level compared to IS13 and IS15” value (IL-6; LPS-treated cell lines) was “significantly decreased” and the “TNF-alpha level vs LPS-treated group” value (TNF-α; [7]) was “significantly (p < 0.0001) reduced”. The “TNF-alpha level compared to IS13 and IS15” value (TNF-α; LPS-treated cell lines) was “significantly decreased”, the IC50 (MAO-B [2]) was 0.082 ± 0.01 µM and the “SI (selectivity index)” value (MAO-B [2]) was 233.85. The remaining activity at 10 µM (MAO-B [2]) was 3.2 ± 0.77%, the “Fold higher MAO-B inhibition than IS5” value (MAO-B [2]; relative to basic compound IS5) was 50.4 × and the “CNS/BBB permeability in words” value [4] was “high permeability and CNS bioavailability”. The “Prediction (CNS permeation class)” value [4] was “CNS+ (Pe (10^−6 cm/s) > 4.00: CNS + (high permeation))”, the “Experimental Pe” value [4] was > 4 ×10⁻⁶ cm/s and the Papp [4] was 5.02 ± 0.19 ×10⁻⁶ cm/s. The “MAO-B relative activity, dialyzed (AD)” value (MAO-B [5]; […] IC50, 30 min pre-incubation, dialyzed) was 72.89%, the “MAO-B relative activity, undialyzed (AU)” value (MAO-B [5]; […] IC50, 30 min pre-incubation, undialyzed) was 28.65% and the “Reversibility of MAO-B inhibition” value (MAO-B [5]; dialysis) was “reversible-type inhibitors”. The “Type of MAO-B inhibition” value (MAO-B [6]; LB plot) was “competitive”, the Ki (MAO-B [6]; secondary plot of LB slopes vs inhibitor concentration) was 0.044 ± 0.002 µM and the IC50 (MAO-A [3]) was 19.2 ± 5.96 µM. For the same compound, the remaining activity at 10 µM (MAO-A [3]) was 50.8 ± 7.29%, the “CAT (cellular anti-oxidant enzyme) effect” value (CAT) was “enhancing the enzyme activity” and the “SOD (cellular anti-oxidant enzyme) effect” value (SOD) was “enhancing the enzyme activity”. For the same compound, the “Cell viability at 100 μM” value (SH-SY5Y cells; 100 μM) was “remarkably decreased cell viability”, the IC50 (SH-SY5Y cells; Homo sapiens) was 97.2 µM and the “GPx (cellular anti-oxidant enzyme) effect” value (GPx) was “enhancing the enzyme activity”.
With `O=C1Nc2ccccc2/C1=N/NC(=O)c1ccc(F)cc1` [IS8] the IC50 (MAO-B [2]) was 25.5 ± 2.03 µM, the remaining activity at 10 µM (MAO-B [2]) was 67.4 ± 7.8% and the IC50 (MAO-A [3]) was 35 µM. The remaining activity at 10 µM (MAO-A [3]) was 69.7 ± 3.22%.
